One assay has as its target T1, erythrocyte AChE (Homo sapiens, UniProt P22303).
T1 construct: from tissue
Description: In vitro inhibition of erythrocyte AChE (Table 3). Type of assay: biochemical. The note with it: for IC50: erythrocyte AChE, n = 4-8, read-out: AChE IC50 (μM) ± s.e.; for S.I.: selectivity index (IC50 BuChE/IC50 AChE).

Assay [1] deals with T2, brain AChE (Rattus norvegicus, UniProt P37136).
T2 construct: from tissue; host or cells: rat brain (male SD rats), homogenate in Triton/phosphate buffer, supernatant
Description: Rat brain AChE inhibition ex vivo after oral administration (Table 1). Type of assay: in vivo. The note with it: for Potency relative to CHF 2060: inhibition of AChE after oral administration in rat; for ED50: read-out: ED50 (dose of compound to inhibit 50% of the enzyme), p.o., brain AChE, C.L. 95% given; for inhibition at 3 mg/kg: 3 mg/kg p.o. How it is done: (§1) In a preferred embodiment of the present invention, compounds CHF 2819, CHF 2957, CHF 2822 were evaluated for their enzymatic inhibition potency and selectivity of action through a series of parameters in comparison with n-heptylaminocarbonylgeneseroline hydrochloride (CHF2060).
(§2) Male SD rats weighing 150-200 g were split into groups of 8 animals each, depending on the treatment with the different substances, which were orally administered in distilled water, at a volume of 2 ml/kg. After 2 hours from the administration, the animals were sacrificed as to take their brains. Brain tissue was homogenized in a […] solution in 0.1 M phosphate buffer at pH 8. After 15 minutes centrifugation, at 4° C., the supernatant was separated and AChE was determined on it with the method described by ElIman G. L. et al. (Biochem Pharmacol. 7, 88-95, 1961). For each treatment enzyme inhibition percent was determined against controls (animals treated with distilled water only).

Assay [2] concerns the target T2, brain AChE. Description: Inhibition kinetics of brain AChE after oral administration (Table 2). The format is in vivo. The settings on record: for selectivity index*: Brain AUC/Heart AUC; for selectivity index* / brain AUC (% inhib · xh) / inhibition at 9 mg/kg: p.o. at 1/7 LD50: CHF 2060 10, CHF 2819 1.3, CHF 2822 2.5, CHF 2957 9 mg/kg, rat; for brain AUC (% inhib · xh) / inhibition at 9 mg/kg: 1, 4, 16 h; for inhibition at 9 mg/kg: po, read-out: brain AChE maximum % inhibition. How it is done: as §1, §2
(§3) Another series of experiments was performed in order to determine inhibition kinetics of brain and heart AChE after 1, 4 and 16 hours from administration of each tested substance. Enzyme was assayed on tissue homogenates similarly to what above described. […] Area Under Curve (AUC) was calculated by means of the enzymatic inhibition curve, for brain and heart tissue, related to the three test times.

A further assay concerns heart AChE. Description: Inhibition kinetics of heart AChE after oral administration (Table 2). The format is in vivo. The note with it: p.o. at 1/7 LD50: CHF 2060 10, CHF 2819 1.3, CHF 2822 2.5, CHF 2957 9 mg/kg; 1, 4, 16 h; rat. How it is done:
as §1, §2, §3

The target of the next assay is T3, human plasma BuChE (Homo sapiens, UniProt P06276).
T3 construct: human plasma BuChE; from tissue; host or cells: human plasma
Description: In vitro inhibition of human plasma BuChE (Table 3). Type of assay: biochemical. The settings on record: for IC50: human plasma BuChE, n = 4-8, read-out: BuChE IC50 (μM) ± s.e.

Assay [3] relates to brain acetylcholinesterase (AChE). The note with it: European patent 0599890; cited from earlier work.

Counter-ions that a name gives are not always drawn. Like-named read-outs stand apart in the source and are kept apart here.

What is called IC50 is the concentration at which inhibition is half-maximal. The term ED50 denotes the dose at which the effect has come halfway, by size or by number of responders. As a reminder, the inhibition is the percentage by which the read-out fell short of the control.

T1 sequence (P22303 other isoform, or with tags, fused parts or gaps): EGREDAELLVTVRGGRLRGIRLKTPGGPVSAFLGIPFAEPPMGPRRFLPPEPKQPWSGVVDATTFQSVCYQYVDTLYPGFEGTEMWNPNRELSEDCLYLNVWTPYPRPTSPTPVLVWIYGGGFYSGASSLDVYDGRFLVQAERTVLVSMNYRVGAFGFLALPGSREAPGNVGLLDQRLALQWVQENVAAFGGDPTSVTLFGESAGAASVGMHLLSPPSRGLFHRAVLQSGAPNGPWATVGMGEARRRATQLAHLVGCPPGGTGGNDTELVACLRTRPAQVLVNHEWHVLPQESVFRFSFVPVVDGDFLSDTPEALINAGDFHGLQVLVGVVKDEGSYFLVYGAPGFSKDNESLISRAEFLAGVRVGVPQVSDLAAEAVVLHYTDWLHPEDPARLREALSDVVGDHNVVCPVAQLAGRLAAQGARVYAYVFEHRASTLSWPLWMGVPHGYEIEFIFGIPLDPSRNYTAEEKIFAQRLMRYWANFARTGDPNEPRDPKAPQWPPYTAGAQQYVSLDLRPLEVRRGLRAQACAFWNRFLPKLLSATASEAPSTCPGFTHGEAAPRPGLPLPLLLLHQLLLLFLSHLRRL
T3 sequence (P06276 29-602): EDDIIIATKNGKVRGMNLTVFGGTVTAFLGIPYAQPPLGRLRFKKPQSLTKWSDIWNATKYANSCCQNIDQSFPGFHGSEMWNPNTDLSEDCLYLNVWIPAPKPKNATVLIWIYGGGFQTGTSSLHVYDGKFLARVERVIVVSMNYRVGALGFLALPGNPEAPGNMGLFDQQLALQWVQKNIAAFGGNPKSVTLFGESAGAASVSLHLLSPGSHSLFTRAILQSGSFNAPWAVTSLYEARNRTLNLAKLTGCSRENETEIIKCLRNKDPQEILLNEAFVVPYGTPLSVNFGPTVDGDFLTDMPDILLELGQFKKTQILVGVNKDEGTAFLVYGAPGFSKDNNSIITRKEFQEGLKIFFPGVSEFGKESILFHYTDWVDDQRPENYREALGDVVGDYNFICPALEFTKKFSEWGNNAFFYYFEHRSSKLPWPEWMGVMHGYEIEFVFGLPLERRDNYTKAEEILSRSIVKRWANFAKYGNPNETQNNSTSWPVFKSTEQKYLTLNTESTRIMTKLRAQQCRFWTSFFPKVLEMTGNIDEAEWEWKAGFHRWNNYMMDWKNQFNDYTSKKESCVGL
T2 sequence (P37136 32-614): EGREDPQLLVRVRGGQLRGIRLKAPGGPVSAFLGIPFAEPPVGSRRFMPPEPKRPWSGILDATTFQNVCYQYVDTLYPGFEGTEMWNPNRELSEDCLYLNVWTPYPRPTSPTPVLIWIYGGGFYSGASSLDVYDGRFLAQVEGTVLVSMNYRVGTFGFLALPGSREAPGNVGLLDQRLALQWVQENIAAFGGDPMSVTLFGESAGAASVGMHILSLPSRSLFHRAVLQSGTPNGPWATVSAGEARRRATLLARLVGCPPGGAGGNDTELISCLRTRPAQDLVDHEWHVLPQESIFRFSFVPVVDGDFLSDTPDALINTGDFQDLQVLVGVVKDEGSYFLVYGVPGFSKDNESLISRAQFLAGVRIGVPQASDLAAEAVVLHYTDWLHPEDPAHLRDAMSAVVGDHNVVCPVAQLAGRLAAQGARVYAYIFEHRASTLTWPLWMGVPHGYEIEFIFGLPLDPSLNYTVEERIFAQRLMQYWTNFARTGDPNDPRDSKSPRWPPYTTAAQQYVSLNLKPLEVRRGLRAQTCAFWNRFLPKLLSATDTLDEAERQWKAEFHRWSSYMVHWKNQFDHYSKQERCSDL

Consider `Cc1cccc(NC(=O)Oc2ccc3c(c2)[C@]2(C)CCN(C)OC2N3C)c1` (stereo partly shown) [CHF 2957, n-(3-methylphenyl)aminocarbonylgeneseroline hydrochloride], for which, on erythrocyte AChE (in vitro), the “selectivity AChE versus BuChE (in words)” value is given as “good selectivity” and the IC50 stood at 4.2 ± 0.29 µM. The same molecule showed a S.I. on erythrocyte AChE of 32. The “Potency relative to CHF 2060” value at brain AChE [1] stood at 3 times. Moreover, on brain AChE [1] (po, rat, 2 h), the ED50 amounted to 4.1 mg/kg. For the same molecule, on brain AChE [1] (rat p.o., CHF 2060 = 1), the “Potency order (*)” value turned out to be 3. Moreover, at brain AChE [1] (rat, po, 2 h, SD rats), the inhibition at 3 mg/kg was determined as 21%. This molecule also yielded an inhibition at 6 mg/kg at brain AChE [1] (rat, po, 6 mg/kg p.o., 2 h, SD rats) of 56%. The inhibition at 9 mg/kg on brain AChE [1] (rat, po, 9 mg/kg p.o., 2 h, SD rats) stood at 67%. On brain AChE [2], the “selectivity index*” value is 4.7, the “brain AUC (% inhib · xh)” value was 585 % inhib · xh and the inhibition at 9 mg/kg came out at 62%. In the assay on heart AChE, the “Heart AChE maximum % inhibition” value is 13% and the “Heart AUC (% inhib · xh)” value is reported as 125 % inhib · xh. Besides, the IC50 on human plasma BuChE was determined as 134 ± 9.7 µM.

Regarding `CNC(=O)Oc1ccc2c(c1)[C@]1(C)CCN(C)[C@@H]1N2C` [Physostigmine, reference compound], on erythrocyte AChE, the S.I. amounted to 0.27.

`CCCCCCCNC(=O)Oc1ccc2c(c1)[C@]1(C)CCN(C)OC1N2C` (stereo partly shown) [CHF 2060, n-heptylaminocarbonylgeneseroline hydrochloride, reference compound]: the IC50 at erythrocyte AChE (in vitro) was 0.85 ± 0.08 µM. The molecule further returned a S.I. at erythrocyte AChE of 0.005. In addition, the “Potency order (*)” value at brain AChE [1] came out at 1. For the same molecule, the median effective dose (ED50) at brain AChE [1] (po, rat, 2 h) was 13.2 mg/kg. The molecule further had an inhibition at 3 mg/kg against brain AChE [1] (rat, po, 2 h, SD rats) of 8%. This molecule had an inhibition at 10 mg/kg at brain AChE [1] (rat, po, 10 mg/kg p.o., 2 h, SD rats) of 29%. This molecule also yielded an inhibition at 30 mg/kg against brain AChE [1] (rat, po, 30 mg/kg p.o., 2 h, SD rats) of 60%. The “brain acetylcholinesterase inhibition, duration (in words)” value in assay [3] is “inhibitor of brain acetylcholinesterase characterised by a long action”. On brain AChE [2], the “selectivity index*” value came to 0.6, the “brain AUC (% inhib · xh)” value is reported as 252 % inhib · xh and the inhibition at 9 mg/kg turned out to be 20%. In the assay with heart AChE, the “Heart AChE maximum % inhibition” value turned out to be 41% and the “Heart AUC (% inhib · xh)” value came to 450 % inhib · xh. At human plasma BuChE, the “BuChE inhibition relative to AChE (in words)” value is listed as “definitely more potent in inhibiting BuChE, rather than AChE” and the IC50 was 0.005 ± 0.0007 µM.

For `Cc1ccccc1NC(=O)Oc1ccc2c(c1)[C@]1(C)CCN(C)OC1N2C` (stereo partly shown) [CHF 2822, n-(2-methylphenyl)aminocarbonylgeneseroline hydrochloride], at erythrocyte AChE (in vitro), the “selectivity AChE versus BuChE (in words)” value is recorded as “slightly less selective” and the IC50 was 2.01 ± 0.08 µM. The S.I. at erythrocyte AChE turned out to be 0.09. At brain AChE [1], the “Potency relative to CHF 2060” value is 7 times. The ED50 at brain AChE [1] (po, rat, 2 h) came out at 1.6 mg/kg. On brain AChE [1] (rat p.o., CHF 2060 = 1), the “Potency order (*)” value stood at 7. Besides, at 0.8 mg/kg the inhibition at brain AChE [1] (rat, po, 0.8 mg/kg p.o., 2 h, SD rats) was 25%. This molecule had an inhibition at 2.5 mg/kg at brain AChE [1] (rat, po, 2.5 mg/kg p.o., 2 h, SD rats) of 46%. At brain AChE [1] (rat, po, 7.5 mg/kg p.o., 2 h, SD rats), testing at 7.5 mg/kg gave an inhibition of 68%. In addition, at brain AChE [2], the “selectivity index*” value came out at 3.9 and the “brain AUC (% inhib · xh)” value is recorded as 379 % inhib · xh. For the same molecule, in the assay on heart AChE, the “Heart AChE maximum % inhibition” value is reported as 9% and the “Heart AUC (% inhib · xh)” value is 96 % inhib · xh. For the same molecule, the IC50 at human plasma BuChE is 0.18 ± 0.01 µM.

In the case of `CCc1ccccc1NC(=O)Oc1ccc2c(c1)[C@]1(C)CCN(C)OC1N2C` (stereo partly shown) [CHF 2819, n-(2-ethylphenyl)aminocarbonylgeneseroline hydrochloride], at erythrocyte AChE (in vitro), the “selectivity AChE versus BuChE (in words)” value was “favourable "in vitro" selectivity on AChE with respect to BuChE” and the IC50 stood at 0.48 ± 0.06 µM. On erythrocyte AChE (in vitro, AChE versus BuChE, from selectivity index), the “selectivity on AChE” value was determined as 115 times. At erythrocyte AChE, this molecule showed a S.I. of 115. Moreover, the “Potency relative to CHF 2060” value on brain AChE [1] was 8 times. For the same molecule, on brain AChE [1] (po, rat, 2 h), the ED50 was found to be 1.5 mg/kg. Moreover, the “Potency order (*)” value on brain AChE [1] (rat p.o., CHF 2060 = 1) is given as 8. The molecule further came in with an inhibition at 0.4 mg/kg against brain AChE [1] (rat, po, 0.4 mg/kg p.o., 2 h, SD rats) of 9%. Besides, at brain AChE [1] (rat, po, 1.3 mg/kg p.o., 2 h, SD rats), at 1.3 mg/kg the inhibition was 34%. The molecule also came in with an inhibition at 3.7 mg/kg on brain AChE [1] (rat, po, 3.7 mg/kg p.o., 2 h, SD rats) of 55%. Further, on brain AChE [2], the “selectivity index*” value is listed as 9.7 and the “brain AUC (% inhib · xh)” value stood at 348 % inhib · xh. Also, the “in vivo selectivity in inhibiting brain AChE (in words)” value at brain AChE [2] (brain versus heart/peripheral) was “"in vivo" selectivity in inhibiting brain AChE”. For the same molecule, the “duration of action (in words)” value on brain AChE [2] (in vivo) is “good duration of action”. For the same molecule, in the assay with heart AChE, the “Heart AChE maximum % inhibition” value was found to be 4% and the “Heart AUC (% inhib · xh)” value amounted to 36 % inhib · xh. On human plasma BuChE, the IC50 was 55.2 ± 6.43 µM.

Take `CCN(C)C(=O)Oc1cccc([C@H](C)N(C)C)c1` [SDZ-ENA 713, reference compound]: the “AChE affinity / activity (in words)” value at erythrocyte AChE (in vitro, evaluated as IC50) was “less active than other products”. This molecule came in with a S.I. at erythrocyte AChE of 0.007.

The values above are taken from patent US6297237A, “Process for the preparation of aminocarbonyl derivatives of geneseroline having selective brain anticholinesterase activity” (priority 1997, dated 2001).
